Reference: publication PMC9494668 (ACS Omega, 2022)
Converted amounts (≈) assume the structure as drawn. Where two headings read alike, the source gives them in different places.

Key:
[1] = system: H69PR human small cell lung cancer cell line; experiment: MTT cytotoxicity, H69PR; type: cell-based; conditions: 48 h, read-out: Anticancer activity IC50, H69PR
[2] = system: methicillin-resistant strains of Staphylococcus aureus ATCC 43300; experiment: Microtitre broth dilution MIC, MRSA; type: cell-based; conditions: ATCC43300|MRSA, read-out: MIC, MRSA
[3] = system: Streptococcus faecalis ATCC 29212; experiment: Microtitre broth dilution MIC, Streptococcus faecalis; type: cell-based; conditions: Enterococcus faecalis, ATCC29212, read-out: MIC, SF
[4] = system: Aspergillus niger ATCC 16404; experiment: microbe, parasite or virus in culture; type: cell-based
[5] = system: MCF7 human breast cancer cell line; experiment: MTT cytotoxicity, MCF7; type: cell-based; conditions: MCF7, 48 h, read-out: Anticancer activity IC50, MCF7
[6] = system: C26 colon carcinoma cell line; experiment: MTT cytotoxicity, C26; type: cell-based; conditions: 48 h, read-out: Anticancer activity IC50, C26
[7] = system: Pseudomonas aeruginosa ATCC 27853; experiment: Microtitre broth dilution MIC, Pseudomonas aeruginosa; type: cell-based; conditions: ATCC27853, read-out: MIC, PA
[8] = system: HepG2 human hepatocyte carcinoma cell line; experiment: MTT cytotoxicity, HepG2; type: cell-based; conditions: HepG2, 48 h, read-out: Anticancer activity IC50, HepG2
[9] = system: Escherichia coli ATCC 25922; experiment: Microtitre broth dilution MIC, Escherichia coli; type: cell-based; conditions: ATCC25922, read-out: MIC, EC
[10] = system: Candida albicans ATCC 10321; experiment: microbe, parasite or virus in culture; type: cell-based
[11] = system: Salmonella enterica ATCC 10428; experiment: Microtitre broth dilution MIC, Salmonella enterica; type: cell-based; conditions: ATCC10428, read-out: MIC, SE
[12] = system: methicillin-susceptible strains of Staphylococcus aureus ATCC 29213; experiment: Microtitre broth dilution MIC, MSSA; type: cell-based; conditions: ATCC29213|MSSA, read-out: MIC, MSSA
VEGFR-2 = VEGFR-2 (Homo sapiens, UniProt P35968); experiment: In vitro VEGFR-2 kinase inhibition assay; type: biochemical; conditions: for IC50: IC50 VEGFR-2 inhibitory activity, IC50 ± SEM; for inhibitory activity on VEGFR-2 relative to DHFR: times better on the VEGFR-2 receptor than the DHFR receptor
VEGFR-2, sequence (P35968 20-1356): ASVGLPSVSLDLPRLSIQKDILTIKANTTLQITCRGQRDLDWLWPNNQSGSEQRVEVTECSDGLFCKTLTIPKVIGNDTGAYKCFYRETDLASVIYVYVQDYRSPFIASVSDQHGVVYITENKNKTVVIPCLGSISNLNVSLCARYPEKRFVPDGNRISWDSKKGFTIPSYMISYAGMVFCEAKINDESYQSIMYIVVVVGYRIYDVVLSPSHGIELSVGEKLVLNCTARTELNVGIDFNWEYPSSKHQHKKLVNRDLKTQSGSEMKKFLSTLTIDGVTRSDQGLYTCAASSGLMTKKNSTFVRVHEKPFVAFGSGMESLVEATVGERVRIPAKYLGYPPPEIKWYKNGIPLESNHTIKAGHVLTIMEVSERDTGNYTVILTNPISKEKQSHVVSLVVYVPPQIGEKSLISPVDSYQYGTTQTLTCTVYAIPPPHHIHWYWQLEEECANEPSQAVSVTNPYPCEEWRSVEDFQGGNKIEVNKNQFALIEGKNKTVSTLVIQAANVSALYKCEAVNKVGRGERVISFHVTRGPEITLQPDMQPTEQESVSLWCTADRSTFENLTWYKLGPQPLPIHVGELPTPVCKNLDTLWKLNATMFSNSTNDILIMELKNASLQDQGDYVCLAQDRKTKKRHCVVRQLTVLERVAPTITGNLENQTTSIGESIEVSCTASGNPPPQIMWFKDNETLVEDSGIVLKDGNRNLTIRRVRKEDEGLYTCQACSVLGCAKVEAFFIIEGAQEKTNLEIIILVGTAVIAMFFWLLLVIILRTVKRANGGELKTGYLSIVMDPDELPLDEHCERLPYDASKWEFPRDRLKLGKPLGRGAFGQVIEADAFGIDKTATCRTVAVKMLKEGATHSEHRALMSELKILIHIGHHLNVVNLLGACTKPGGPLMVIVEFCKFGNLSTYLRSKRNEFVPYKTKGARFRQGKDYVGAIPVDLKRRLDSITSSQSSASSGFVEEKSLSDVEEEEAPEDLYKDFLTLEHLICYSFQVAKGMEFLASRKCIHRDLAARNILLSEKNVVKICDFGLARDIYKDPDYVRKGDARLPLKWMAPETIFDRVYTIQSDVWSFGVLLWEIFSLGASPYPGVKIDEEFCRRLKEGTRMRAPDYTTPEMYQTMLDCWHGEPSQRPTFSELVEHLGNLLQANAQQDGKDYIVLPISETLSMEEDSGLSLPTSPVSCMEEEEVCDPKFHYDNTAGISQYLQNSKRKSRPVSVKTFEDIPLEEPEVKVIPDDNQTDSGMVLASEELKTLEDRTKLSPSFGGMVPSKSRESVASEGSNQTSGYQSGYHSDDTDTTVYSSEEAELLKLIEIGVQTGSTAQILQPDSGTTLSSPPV

[13] = system: bacterial strains (EC, PA, SF, SE, MSSA, MRSA) and fungi (CA, AN); experiment: Microtitre broth dilution MIC, stated over several strains; type: cell-based
DHFR = target: T1, DHFR (Homo sapiens, UniProt P00374); experiment: In vitro dihydrofolate reductase inhibition assay; type: biochemical; conditions: IC50 DHFR inhibitory activity, IC50 ± SEM
T1 sequence (P00374 1-187): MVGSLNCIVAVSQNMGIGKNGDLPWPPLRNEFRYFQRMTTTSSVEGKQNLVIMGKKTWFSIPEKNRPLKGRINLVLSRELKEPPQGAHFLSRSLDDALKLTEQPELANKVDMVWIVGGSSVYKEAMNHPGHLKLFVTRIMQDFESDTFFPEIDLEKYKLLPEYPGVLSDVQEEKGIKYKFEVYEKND

[14] = system: Candida albicans, Candida glabrata, Candida krusei, and Candida tropicalis; conditions: cited from earlier work
drug-resistant fungi = conditions: ref [17]; cited from earlier work

Compound	IC50 [1]	MIC [2]	MIC [3]	MIC ([4]; ATCC16404, read-out: MIC, AN)	IC50 [5]	IC50 [6]	MIC [7]	IC50 [8]	MIC [9]	MIC ([10]; ATCC10321, read-out: MIC, CA)	MIC [11]	MIC [12]	other results
COc1cc(OC)c2cc(C(=O)NCc3ccc(Br)cc3)cc(O)c2c1 [7a, N-(4-bromobenzyl)-4-hydroxy-6,8-dimethoxy-2-naphthamide]	23 ± 2.87 µM	128 µg/mL (≈ 307 µM)	64 µg/mL (≈ 154 µM)	256 µg/mL (≈ 615 µM)	19.8 ± 1.59 µM	18.5 ± 1.73 µM	64 µg/mL (≈ 154 µM)	16.7 ± 1.68 µM	64 µg/mL (≈ 154 µM)	128 µg/mL (≈ 307 µM)	64 µg/mL (≈ 154 µM)		
COc1ccc(CNC(=O)c2cc(O)c3cc(OC)cc(OC)c3c2)cc1 [6a, 4-Hydroxy-6,8-dimethoxy-N-(4-methoxybenzyl)-2-naphthamide]	29.2 ± 2.65 µM	128 µg/mL (≈ 348 µM)	64 µg/mL (≈ 174 µM)		15.9 ± 1.28 µM	14.4 ± 1.62 µM	64 µg/mL (≈ 174 µM)	17.4 ± 1.51 µM	64 µg/mL (≈ 174 µM)		64 µg/mL (≈ 174 µM)	32 µg/mL (≈ 87.1 µM)	MIC ([4]; ATCC16404, 72 h, read-out: MIC, AN): 256 µg/mL (≈ 697 µM); MIC ([10]; ATCC10321, 72 h, read-out: MIC, CA): 256 µg/mL (≈ 697 µM)
CC(=O)O[C@H]1C(=O)[C@@]2(C)[C@H]([C@H](OC(=O)c3ccccc3)[C@]3(O)C[C@H](OC(=O)[C@H](O)[C@@H](NC(=O)c4ccccc4)c4ccccc4)C(C)=C1C3(C)C)[C@]1(OC(C)=O)CO[C@@H]1C[C@@H]2O [PTX, paclitaxel, reference compound]	7.29 ± 0.91 µM				2.85 ± 0.43 µM	3.96 ± 0.54 µM		5.75 ± 0.6 µM					
COc1cc(OC)c2c(O)cc(C(=O)NCc3ccc(Cl)cc3)cc2c1 [8b, N-(4-chlorobenzyl)-4-hydroxy-5,7-dimethoxy-2-naphthamide]	12.8 ± 2.83 µM	16 µg/mL (≈ 43 µM)	16 µg/mL (≈ 43 µM)	256 µg/mL (≈ 689 µM)	3.58 ± 1.06 µM	2.97 ± 0.98 µM	64 µg/mL (≈ 172 µM)	7.12 ± 1.25 µM	16 µg/mL (≈ 43 µM)	64 µg/mL (≈ 172 µM)	16 µg/mL (≈ 43 µM)	8 µg/mL (≈ 21.5 µM)	IC50 (VEGFR-2): 0.384 ± 0.047 µM; inhibitory activity on VEGFR-2 relative to DHFR (VEGFR-2): 15–20 times; fold antibacterial activity relative to compound 5b ([13]; strains SF, SE, MSSA, and MRSA): more than 2 fold; IC50 (DHFR): 7.88 ± 0.442 µM
CN(C/C=C/c1ccccc1)Cc1cccc2ccccc12 [naftifine]													MIC50, Candida species [14]: 0.25 to 2.00 µg/mL
OC(Cn1cncn1)(Cn1cncn1)c1ccc(F)cc1F [Flu, fluconazole, reference compound]				128 µg/mL (≈ 418 µM)						4 µg/mL (≈ 13.1 µM)			MIC50, Candida species ([14]; Candida albicans, glabrata, krusei, tropicalis, ref [17]): 0.25 to 2.00 µg/mL; MIC50, drug-resistant fungi (drug-resistant fungi): > 16 µg/mL
COc1cc(OC)c2c(O)cc(C(=O)NCc3ccc(C)cc3)cc2c1 [5b, 4-Hydroxy-5,7-dimethoxy-N-(4-methylbenzyl)-2-naphthamide]	28.4 ± 3.7 µM	32 µg/mL (≈ 91.1 µM)	32 µg/mL (≈ 91.1 µM)	256 µg/mL (≈ 729 µM)	6.75 ± 1.95 µM	3.59 ± 1.04 µM	64 µg/mL (≈ 182 µM)	8.38 ± 1.14 µM	64 µg/mL (≈ 182 µM)	64 µg/mL (≈ 182 µM)	32 µg/mL (≈ 91.1 µM)	16 µg/mL (≈ 45.5 µM)	IC50 (VEGFR-2): 0.623 ± 0.056 µM; inhibitory activity on VEGFR-2 relative to DHFR (VEGFR-2): 15–20 times; MIC ([13]; Staphylococcus aureus, MRSA|MSSA, read-out: MIC against SE, SF, MSSA, and MRSA): 16 to 32 µg/mL (≈ 45.5 to 91.1 µM); IC50 (DHFR): 9.09 ± 0.511 µM
COc1cc(OC)c2cc(C(=O)NCc3ccc(C)cc3)cc(O)c2c1 [5a, 4-Hydroxy-6,8-dimethoxy-N-(4-methylbenzyl)-2-naphthamide]	34.2 ± 5.64 µM	128 µg/mL (≈ 364 µM)	64 µg/mL (≈ 182 µM)	256 µg/mL (≈ 729 µM)	10.3 ± 2.11 µM	9.21 ± 2.3 µM	64 µg/mL (≈ 182 µM)	13.6 ± 1.37 µM	64 µg/mL (≈ 182 µM)	128 µg/mL (≈ 364 µM)	64 µg/mL (≈ 182 µM)		
O=C(O)c1cn(C2CC2)c2cc(N3CCNCC3)c(F)cc2c1=O [Cipro, ciprofloxacin, reference compound]		16 µg/mL (≈ 48.3 µM)	8 µg/mL (≈ 24.1 µM)				16 µg/mL (≈ 48.3 µM)		16 µg/mL (≈ 48.3 µM)		8 µg/mL (≈ 24.1 µM)	8 µg/mL (≈ 24.1 µM)	
COc1cc(OC)c2c(O)cc(C(=O)NCc3ccc(Br)cc3)cc2c1 [7b, N-(4-bromobenzyl)-4-hydroxy-5,7-dimethoxy-2-naphthamide]	21.3 ± 3.04 µM	64 µg/mL (≈ 154 µM)	32 µg/mL (≈ 76.9 µM)	256 µg/mL (≈ 615 µM)	11.5 ± 1.61 µM	9.83 ± 1.54 µM	64 µg/mL (≈ 154 µM)	12.1 ± 1.09 µM	64 µg/mL (≈ 154 µM)	64 µg/mL (≈ 154 µM)	32 µg/mL (≈ 76.9 µM)	32 µg/mL (≈ 76.9 µM)	
COc1cc(OC)c2cc(C(=O)NCCCN3CCOCC3)cc(O)c2c1 [4a, 4-Hydroxy-6,8-dimethoxy-N-(3-morpholinopropyl)-2-naphthamide]	52.2 ± 4.81 µM	256 µg/mL (≈ 684 µM)	128 µg/mL (≈ 342 µM)	256 µg/mL (≈ 684 µM)	16.1 ± 2.42 µM	23.8 ± 2.93 µM	128 µg/mL (≈ 342 µM)	14.5 ± 2.02 µM	128 µg/mL (≈ 342 µM)	128 µg/mL (≈ 342 µM)	64 µg/mL (≈ 171 µM)	64 µg/mL (≈ 171 µM)	
COc1cc(OC)c2cc(C(=O)NCc3ccc(Cl)cc3)cc(O)c2c1 [8a, N-(4-chlorobenzyl)-4-hydroxy-6,8-dimethoxy-2-naphthamide]	25.4 ± 3.02 µM	128 µg/mL (≈ 344 µM)	64 µg/mL (≈ 172 µM)	256 µg/mL (≈ 689 µM)	12.4 ± 1.34 µM	8.61 ± 1.49 µM	64 µg/mL (≈ 172 µM)	10.1 ± 1.17 µM	64 µg/mL (≈ 172 µM)	64 µg/mL (≈ 172 µM)	64 µg/mL (≈ 172 µM)	32 µg/mL (≈ 86.1 µM)	
COc1cc(OC)c2c(O)cc(C(=O)NCCCN3CCOCC3)cc2c1 [4b, 4-Hydroxy-5,7-dimethoxy-N-(3-morpholinopropyl)-2-naphthamide]	53.7 ± 3.55 µM	256 µg/mL (≈ 684 µM)	128 µg/mL (≈ 342 µM)	256 µg/mL (≈ 684 µM)	18.6 ± 1.84 µM	25.1 ± 3.23 µM	128 µg/mL (≈ 342 µM)	17.8 ± 2.46 µM	128 µg/mL (≈ 342 µM)	64 µg/mL (≈ 171 µM)	64 µg/mL (≈ 171 µM)	64 µg/mL (≈ 171 µM)	
COc1ccc(CNC(=O)c2cc(O)c3c(OC)cc(OC)cc3c2)cc1 [6b, 4-Hydroxy-5,7-dimethoxy-N-(4-methoxybenzyl)-2-naphthamide]	28.5 ± 3.29 µM	32 µg/mL (≈ 87.1 µM)	32 µg/mL (≈ 87.1 µM)	256 µg/mL (≈ 697 µM)	13.3 ± 2.69 µM	12.3 ± 2.15 µM	128 µg/mL (≈ 348 µM)	14 ± 1.4 µM	64 µg/mL (≈ 174 µM)	64 µg/mL (≈ 174 µM)	32 µg/mL (≈ 87.1 µM)	32 µg/mL (≈ 87.1 µM)	
